From patent US20120065152A1 (SHIRE LLC, priority 2010, published 2012)
Where “and” joins values, the source holds several entries; their conditions need not be identical. Identical values can stand only once. Counter-ions that a name gives are not always drawn.

What was measured:
[1] = Comparative bioavailability study of guanfacine in monkeys given guanfacine or guanfacine prodrug; format: in vivo, monkey; conditions: for Prodrug Cmax: monkeys, 0.5 mg/kg guanfacine free base equivalents; for Cmax: monkey, plasma, po, 0.5 mg/kg
Description: Blood samples were taken at various times after administration and submitted to analysis for the parent drug and prodrug using a qualified LC-MS-MS assay. The following pharmacokinetic parameters derived from the plasma analytical data were determined using Win Nonlin;

rat GIT transit = experiment: Charcoal propulsion test (gut motility) in rat; format: in vivo; conditions: oral; for % inhibition of rat GIT transit: 60 min before charcoal
Description: The effect of a drug on gut motility can be studied by means of the charcoal propulsion test.
The method used was based on that described by Takemori et al. (J. Pharmacol. Exp. Ther. 169:39, 1969). Test treatments were administered orally 60 minutes prior to an oral dose of a 10% suspension of charcoal in 2.5% gum Arabic (2 ml/kg). Twenty minutes after dosing with charcoal, the rats were sacrificed and the entire gastrointestinal tract was removed quickly and carefully. The distance that the charcoal meal had traveled toward the caecum was measured and expressed as a percentage of the total gut length.

[2] = as early as; cited from earlier work
[3] = Stability studies on guanfacine prodrugs in buffers; format: physicochemical
rat = experiment: Elevated Plus-Maze Test in the rat; format: in vivo
Text: The method, which detects anxiolytic activity, follows that described by Handley and Mithani (Naunyn. Schmied. Arch. Pharmacol., 327, 1-5, 1984). Rodents avoid open spaces (the open arms of an elevated plus-maze). The percentage of time spent on the open arms and the number of entries in the open arms are considered to be the best measures of anxiety (File, S. E. 1991. Animal models of anxiety. In Biological Psychiatry (G. Racagni, N. Brunello, and T. Fukuda, eds.) pp. 596-599. Elsevier, New York.).
Anxiolytics increase exploratory activity in the open arms, as indicated by increased time spent on the open arms and/or by increased % open-arm entries.

[4] = DMSO, organic solvent or mixture, Solubility, in DMSO
[5] = water/CH3CN (1:1), aqueous with cosolvent or surfactant or cyclodextrin, Solubility, in water/CH3CN (1:1)
[6] = pH 1.2, 37° C., 0.1M HCl/NaCl buffer, 1 h
[7] = pH 1.2, 37° C., 0.1M HCl/NaCl buffer, time 0
[8] = pH 3.0, 20° C., 0.1M citrate buffer, 2 h
[9] = pH 3.0, 20° C., 0.1M citrate buffer, time 0
[10] = pH 6.8, 37° C., 0.1M phosphate buffer, 2 h
[11] = pH 6.8, 37° C., 0.1M phosphate buffer, time 0
[12] = pH 7.4, 37° C., 0.1M phosphate buffer, 2 h
[13] = pH 7.4, 37° C., 0.1M phosphate buffer, time 0
[14] = pH 1.2, 37° C., 0.1M HCl/NaCl buffer, 1 h, Hydrochloride
[15] = pH 7.4, 37° C., 0.1M phosphate buffer, 2 h, listed as Guanfacine (2-Hydroxyethyl) Carbamate

Row | Structure (SMILES) | Prodrug Cmax [1] | solubility (Solubility; [4]) [µg/mL] | solubility (Solubility; water, Solubility, in water) [µg/mL] | solubility (Solubility; [5]) [µg/mL] | Active drug [3, 6] | Active drug [3, 7] | Pro-drug [3, 7] | Active drug [3, 8] | Active drug [3, 9] | Pro-drug [3, 9] | Active drug [3, 10] | Active drug [3, 11] | Pro-drug [3, 11] | Active drug [3, 12] | Active drug [3, 13] | Pro-drug [3, 13] | other results
1 | CC(C)OC(=O)NC(N)=NC(=O)Cc1c(Cl)cccc1Cl.Cl [Compound 5, 2-{N′-[2-(2,6-Dichloro-phenyl)acetyl]-guanidinocarbonyloxy}propane Hydrochloride] | BLQ | > 10000 | < 1000 |  |  |  |  |  |  |  |  |  |  |  |  |  | solubility (Solubility; 3.0 mL CH3CN/3.0 mL H2O, aqueous with cosolvent or surfactant or cyclodextrin, Solubility, in 3.0 mL CH3CN/3.0 mL H2O): > 833 µg/mL
2 | N=C(N)NC(=O)Cc1c(Cl)cccc1Cl [Guanfacine, N-Amidino-2-(2,6-dichlorophenyl)acetamide monohydrochloride, reference compound] |  |  |  |  |  |  |  |  |  |  |  |  |  |  |  |  | % inhibition of rat GIT transit (rat GIT transit; dose 00.1 mg/kg (guanfacine free base equivalents)): 41%; % inhibition of rat GIT transit (rat GIT transit; dose 00.3 mg/kg (guanfacine free base equivalents)): 56%; Reduction in the distance traveled by the charcoal plug within 20 minutes, compared to control group (rat GIT transit; 0.1 mg base/kg): about 41%; Time after dosing at which peak plasma drug levels are reached [2]: ≥ 1 h
3 | CCCCOC(=O)NC(N)=NC(=O)Cc1c(Cl)cccc1Cl.Cl [Compound 6, 1-{N′-[2-(2,6-Dichloro-phenyl)-acetyl]-guanidinocarbonyloxy}butane Hydrochloride] | BLQ | > 10000 | < 1000 | > 1000 | 0.0 | 0.0 | 100 | 0.0 | 0.0 | 100 | 0.0 | 0.0 | 100 | 0.0 | 0.0 | 100 | Pro-drug [3, 6]: 94.0; Pro-drug ([3]; pH 3.0, 20° C., 0.1M citrate buffer, 2 h, listed as Guanfacine N-Butyl Carbamate Hydrochloride, Hydrochloride): 94.6 and 94.9; Pro-drug ([3]; pH 6.8, 37° C., 0.1M phosphate buffer, 2 h, listed as Guanfacine N-Butyl Carbamate Hydrochloride, Hydrochloride): 90.9 and 90.7; Pro-drug ([3]; pH 7.4, 37° C., 0.1M phosphate buffer, 2 h, listed as Guanfacine N-Butyl Carbamate Hydrochloride, Hydrochloride): 90.7 and 91.0
4 | CCCOC(=O)NC(N)=NC(=O)Cc1c(Cl)cccc1Cl.Cl [Compound 4, 1-{N′-[2-(2,6-Dichloro-phenyl)acetyl]-guanidinocarbonyloxy}propane Hydrochloride] | BLQ | > 10000 | < 1000 | > 1000 | 0.0 | 0.0 | 100 | 0.0 | 0.0 | 100 | 0.0 | 0.0 | 100 | 0.0 | 0.0 | 100 | Pro-drug ([3]; pH 1.2, 37° C., 0.1M HCl/NaCl buffer, 1 h, listed as Guanfacine N-Propyl Carbamate Hydrochloride, Hydrochloride): 94.4 and 94.6; Pro-drug ([3]; pH 3.0, 20° C., 0.1M citrate buffer, 2 h, listed as Guanfacine N-Propyl Carbamate Hydrochloride, Hydrochloride): 94.0 and 94.4; Pro-drug ([3]; pH 6.8, 37° C., 0.1M phosphate buffer, 2 h, listed as Guanfacine N-Propyl Carbamate Hydrochloride, Hydrochloride): 95.8 and 96.4; Pro-drug ([3]; pH 7.4, 37° C., 0.1M phosphate buffer, 2 h, listed as Guanfacine N-Propyl Carbamate Hydrochloride, Hydrochloride): 96.3 and 96.0
5 | CCSC(=O)NC(N)=NC(=O)Cc1c(Cl)cccc1Cl.Cl [Compound 30, Guanfacine Ethanethiol Carbamate Hydrochloride] | BLQ |  |  |  |  | 0.0 | 100 | 0.0 | 0.0 | 100 | 0.0 | 0.0 | 100 | 0.0 | 0.0 | 100 | solubility (Solubility; in DMSO): > 10000 µg/mL; solubility (Solubility; in water): < 1000 µg/mL; solubility (Solubility; in water/CH3CN (1:2)): > 5000 µg/mL; Active drug [3, 14]: 10.1 and 11.0; Pro-drug [3, 14]: 81.0 and 80.4; Pro-drug ([3]; pH 3.0, 20° C., 0.1M citrate buffer, 2 h, Hydrochloride): 85.6 and 84.8; Pro-drug ([3]; pH 6.8, 37° C., 0.1M phosphate buffer, 2 h, Hydrochloride): 93.0 and 92.5; Pro-drug ([3]; pH 7.4, 37° C., 0.1M phosphate buffer, 2 h, Hydrochloride): 94.5 and 95.2
6 | CCC(C)OC(=O)NC(N)=NC(=O)Cc1c(Cl)cccc1Cl.Cl (stereo not drawn) [Compound 7, 2-{N′-[2-(2,6-Dichloro-phenyl)-acetyl]-guanidinocarbonyloxy}-butane Hydrochloride] |  |  |  |  | 0.0 | 0.0 | 100 | 0.0 | 0.0 | 100 | 0.0 | 0.0 | 100 | 0.0 | 0.0 | 100 | Pro-drug [3, 6]: 95.9; Pro-drug ([3]; pH 3.0, 20° C., 0.1M citrate buffer, 2 h, listed as Guanfacine 2-Butanol Carbamate Hydrochloride, Hydrochloride): 98.7 and 98.9; Pro-drug [3, 10]: 93.4; Pro-drug ([3]; pH 7.4, 37° C., 0.1M phosphate buffer, 2 h, listed as Guanfacine 2-Butanol Carbamate Hydrochloride, Hydrochloride): 93.4 and 93.6; solubility (physchem; organic solvent or mixture): > 10000 µg/mL; solubility (physchem; water): < 1000 µg/mL
7 | NC(=NC(=O)Cc1c(Cl)cccc1Cl)NC(=O)OCCCO [Compound 22, 3-{N′-[2-(2,6-Dichloro-phenyl)-acetyl]-guanidinocarbonyloxy}propan-1-ol] |  | > 10000 | < 1000 | > 10000 | 0.0 | 0.0 | 100 | 0.0 | 0.0 | 100 | 0.0 | 0.0 | 100 | 0.0 | 0.0 | 100 | Cmax [1]: 3.49 ng/mL; Pro-drug ([3]; pH 1.2, 37° C., 0.1M HCl/NaCl buffer, 1 h, listed as Guanfacine (3-Hydroxypropyl) Carbamate): 94.8 and 94.9; Pro-drug ([3]; pH 3.0, 20° C., 0.1M citrate buffer, 2 h, listed as Guanfacine (3-Hydroxypropyl) Carbamate): 98.1 and 98.3; Pro-drug ([3]; pH 6.8, 37° C., 0.1M phosphate buffer, 2 h, listed as Guanfacine (3-Hydroxypropyl) Carbamate): 99.2 and 99.7; Pro-drug [3, 12]: 98.2
8 | NC(=NC(=O)Cc1c(Cl)cccc1Cl)NC(=O)OCCO [Compound 19, 2-{N′-[2-(2,6-Dichloro-phenyl)-acetyl]-guanidinocarbonyloxy}ethanol] |  | > 10000 | < 1000 | > 10000 | 0.5 | 0.0 | 100 | 0.4 | 0.0 | 100 | 9.8 | 0.0 | 100 |  | 0.0 | 100 | Cmax [1]: 60.8 ng/mL; Change in time spent in the open arms (rat; 10 mg/kg, NS): +69%; Change in percent of entries in open arms (rat; 10 mg/kg, p<0.05): +87%; Efficacy in the Elevated Plus-Maze Test (rat; rat): efficacious; Pro-drug ([3]; pH 1.2, 37° C., 0.1M HCl/NaCl buffer, 1 h, listed as Guanfacine (2-Hydroxyethyl) Carbamate): 91.4 and 91.5; Pro-drug [3, 8]: 98.0; Pro-drug ([3]; pH 6.8, 37° C., 0.1M phosphate buffer, 2 h, listed as Guanfacine (2-Hydroxyethyl) Carbamate): 87.4 and 87.5; Active drug [3, 15]: 22.6 and 22.3; Pro-drug [3, 15]: 72.5 and 73.0
